Where two headings read alike, the source gives them in different places.

The subject of one test is panel of 20 ion channels. The class given is cell-based. The following applies: potassium channels of the panel; 0.2 or 20 μM; FIG. 2. The procedure: This example describes a method for assaying ion channel activity in cells.
Peptides were screened in duplicate at final concentrations of 20 μM and 200 nM, as determined by amino acid analysis, and diluted into HEPES buffered physiological saline (HBPS). HEK293 or CHO cells from the American Type Culture Collection (ATCC) were transfected with the appropriate ion channel before use. HEK293 cells were grown in Dulbecco's Modified Eagle Medium/Nutrient Mixture F-12, and CHO cells were cultured in Ham's F-12 media. All cultures were supplemented with 10% fetal bovine serum, 100 U/ml penicillin G, 100 μg/ml streptomycin sulfate, and the appropriate selection antibiotics. Prior to use, cells were washed twice with Hank's Balanced Salt Solution, and treated with Accutase cell detachment solution (Sigma-Aldrich). Cells were then washed. Peptides and controls were incubated with cells for at least five minutes.
Percent inhibition was defined as: (1-(Ipeptide/Icontrol))×100%).
Percent values were calculated using the following formula: % activation=(IPeptide/Icontrol)×100%, where IPeptide is the current produced by co-application a peptide with agonist, and Icontrol refers to the current produced by stimulation in control. Control used for each ion channel is the reference compound matched to a particular channel, as illustrated in TABLE 10 below.

The target of test [1] is Nav1.3 sodium channel (human SCN3A gene) (Homo sapiens, UniProt Q9NY46). The test is described as follows: cell-based. Further details: host or cells: CHO.
Sequence of Nav1.3 sodium channel (human SCN3A gene) (Q9NY46 whole entry): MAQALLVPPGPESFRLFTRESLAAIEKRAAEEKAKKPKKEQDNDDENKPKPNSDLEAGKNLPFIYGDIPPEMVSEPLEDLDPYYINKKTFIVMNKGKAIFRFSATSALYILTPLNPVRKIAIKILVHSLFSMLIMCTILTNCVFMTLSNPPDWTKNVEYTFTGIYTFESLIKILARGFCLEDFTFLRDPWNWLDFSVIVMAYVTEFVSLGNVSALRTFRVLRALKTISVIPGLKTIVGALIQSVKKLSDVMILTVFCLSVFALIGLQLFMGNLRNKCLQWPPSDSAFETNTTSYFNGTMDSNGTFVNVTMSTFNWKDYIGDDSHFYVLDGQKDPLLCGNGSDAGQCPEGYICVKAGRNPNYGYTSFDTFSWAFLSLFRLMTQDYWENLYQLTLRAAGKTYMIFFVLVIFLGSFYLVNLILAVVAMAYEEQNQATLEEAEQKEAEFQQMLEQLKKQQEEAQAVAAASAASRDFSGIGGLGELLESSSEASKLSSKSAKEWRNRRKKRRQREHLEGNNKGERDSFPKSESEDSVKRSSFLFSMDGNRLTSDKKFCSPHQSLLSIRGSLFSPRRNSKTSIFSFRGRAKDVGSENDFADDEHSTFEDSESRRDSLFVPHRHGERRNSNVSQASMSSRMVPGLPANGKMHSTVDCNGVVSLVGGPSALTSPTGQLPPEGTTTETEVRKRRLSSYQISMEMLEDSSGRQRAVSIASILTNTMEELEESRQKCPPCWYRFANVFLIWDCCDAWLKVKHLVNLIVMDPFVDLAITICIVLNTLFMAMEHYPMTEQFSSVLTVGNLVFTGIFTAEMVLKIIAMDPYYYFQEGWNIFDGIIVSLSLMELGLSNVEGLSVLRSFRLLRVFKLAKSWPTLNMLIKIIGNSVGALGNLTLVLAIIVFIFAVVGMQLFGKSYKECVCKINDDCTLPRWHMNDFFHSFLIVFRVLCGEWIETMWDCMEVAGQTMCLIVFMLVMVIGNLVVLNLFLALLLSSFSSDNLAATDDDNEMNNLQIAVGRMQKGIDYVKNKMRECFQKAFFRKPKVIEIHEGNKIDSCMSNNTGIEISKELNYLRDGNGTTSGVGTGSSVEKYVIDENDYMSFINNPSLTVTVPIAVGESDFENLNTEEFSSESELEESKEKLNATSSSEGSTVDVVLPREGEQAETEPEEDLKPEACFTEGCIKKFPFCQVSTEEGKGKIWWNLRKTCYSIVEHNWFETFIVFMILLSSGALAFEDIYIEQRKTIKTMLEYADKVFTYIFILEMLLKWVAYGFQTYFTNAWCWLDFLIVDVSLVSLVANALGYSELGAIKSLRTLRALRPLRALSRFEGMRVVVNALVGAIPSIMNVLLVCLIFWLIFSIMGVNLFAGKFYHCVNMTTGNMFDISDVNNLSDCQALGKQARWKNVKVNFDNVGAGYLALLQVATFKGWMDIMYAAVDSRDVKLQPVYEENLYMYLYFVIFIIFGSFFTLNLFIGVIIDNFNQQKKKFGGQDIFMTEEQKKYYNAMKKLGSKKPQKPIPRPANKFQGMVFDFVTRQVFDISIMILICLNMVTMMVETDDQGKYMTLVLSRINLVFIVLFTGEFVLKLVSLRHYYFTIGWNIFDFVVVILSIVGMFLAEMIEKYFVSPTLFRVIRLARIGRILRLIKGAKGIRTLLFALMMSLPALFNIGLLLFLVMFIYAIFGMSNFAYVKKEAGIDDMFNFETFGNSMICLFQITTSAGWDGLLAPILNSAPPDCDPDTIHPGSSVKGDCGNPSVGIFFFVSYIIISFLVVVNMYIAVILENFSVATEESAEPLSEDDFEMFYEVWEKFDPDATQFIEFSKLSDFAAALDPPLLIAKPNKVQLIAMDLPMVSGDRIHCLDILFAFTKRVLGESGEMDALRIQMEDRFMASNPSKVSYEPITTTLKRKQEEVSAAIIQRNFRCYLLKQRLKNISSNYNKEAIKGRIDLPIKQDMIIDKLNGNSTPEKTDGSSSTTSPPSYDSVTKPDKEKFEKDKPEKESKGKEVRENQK

“GSVVIGQRCYRSPDCYSACKKLVGKATGKCTNGRCDC [SEQ ID NO: 26]”: in the test with panel of 20 ion channels, the “Activity on potassium channels” value is listed as “showed activity on various subsets of potassium channels”. As a reminder, the IC50 is the concentration that gives 50% inhibition. In the case of `NC1=N[C@H](O)[C@H]2[C@H]3O[C@]4(O)O[C@@H]([C@@H](O)[C@@]2(N1)[C@@H]4O)[C@]3(O)CO` [TTX, Tetrodotoxin, reference compound], the IC50 in test [1] (read-out: IC50 Nav1.3 ion channel inhibition, TP1) came out at 0.033 µM; in test [1] (read-out: IC50 Nav1.3 ion channel inhibition, TP2), 0.028 µM.

Source of the values: patent US20200262877A1, “ION CHANNEL-BINDING PEPTIDES AND METHODS OF USE THEREOF” (priority 2017, published 2020).
